Tests used:
[1] = test system: young cotton seedlings; assay: Ethylene-induced leaf epinasty of young cotton seedlings; type: in vivo, cotton (Gossyium hirsutum barbadense L.)
Description: (1) Abscission-This is a very sensitive model system for studying the effects of plant hormones. Ethylene induces the process of abscission, while auxin delays it. In the laboratory the experimental system is based on plant organ explants, which include the abscission zone. Abscission is induced by exposure to ethylene and at the termination of the experiment the number of abscised organs, usually either leaf blades or petioles are counted and the fraction of abscission is calculated. In the case of fruit, the decrease in fruit retention force is analyzed. […] The plants or explants are then further exposed for 24 h to ethylene gas (5 to 20 μL L^-1). The plants or explants are then ventilated and incubated for the required time under controlled conditions. At the end of the experiment the percentage of abscission is determined. […] Plant material (whole plants, excised leaves or leaf discs) are pretreated. […] The plants or explants are then ventilated and incubated for the required time under controlled conditions. At the end of the experiment a dimethylsulfoxide (DMSO) extract of the plant tissue is prepared, and the chlorophyll content of the extract is determined by spectrophotometric analysis. […] The extent of ethylene-induced epinasty of leaves is determined by measuring the change of the angle between the petiole and the stem shoot or blade. […]

[2] = test system: wheat plants; assay: Ethephon-induced chlorophyll degradation in wheat leaves, glumes and chaffs; type: in vivo, wheat (Triticum turgidum var. 'Gdera'); conditions: for Ethephon-induced decrease in the content of chlorophyll: WS-CPD 45 μg mL^−1
Description: (1) Abscission—This is a very sensitive model system for studying the effects of plant hormones. Ethylene induces the process of abscission, while auxin delays it. In the laboratory the experimental system is based on plant organ explants, which include the abscission zone. Abscission is induced by exposure to ethylene and at the termination of the experiment the number of abscised organs, usually either leaf blades or petioles are counted and the fraction of abscission is calculated. In the case of fruit, the decrease in fruit retention force is analyzed. In cotton, when WS-CPD (the ethylene-action antagonist herein disclosed) is tested, the whole plants or explants are pretreated by spraying with the antagonist, dissolved in a phosphate buffer solution (10-20 mM, pH 7.0) including 0.1% commercially available Kinetic™ as surfactant, and left to incubate for a predetermined time, usually between 6 and 24 h. The plants or explants are then further exposed for 24 h to ethylene gas (5 to 20 μL L^−1). The plants or explants are then ventilated and incubated for the required time under controlled conditions. At the end of the experiment the percentage of abscission is determined. (2) Chlorophyll degradation—This is a standard model for studying senescence. Plant material (whole plants, excised leaves or leaf discs) are pretreated. In cotton, tobacco and wheat, when WS-CPD is tested, the whole plants or explants are pretreated by spraying with the antagonist, dissolved in phosphate buffer solution (10-20 mM, pH 7.0) including 0.1% commercially available Kinetic™ surfactant, and left to incubate for a predetermined time, usually between 6 and 241. The plants or explants are then further exposed for 24 h to ethylene gas (1 to 100 μL L^−1), or sprayed with Ethephon™ (wheat; 250 to 750 μL L^−1). The plants or explants are then ventilated and incubated for the required time under controlled conditions. At the end of the experiment a dimethylsulfoxide (DMSO) extract of the plant tissue is prepared, and the chlorophyll content of the extract is determined by spectrophotometric analysis. The chlorophyll content is reported either on a fresh, dry weight basis, or on a surface area basis. (3) Epinasty—This is also one of the classical methods for studying ethylene effects in plants. The extent of ethylene-induced epinasty of leaves is determined by measuring the change of the angle between the petiole and the stem shoot or blade. After exposure of the intact plant to ethylene, the upright grown leaves bend downward. The increase in the angle values (degrees) between petiole and the stem is used as a measure of the effect of the ethylene. When WS-CPD is tested on cotton and wheat plants, the whole plants are pretreated by spraying with the antagonist dissolved in phosphate buffer solution (10-20 mM, pH 7.6) including 0.1% Kinetic™ as surfactant, and left to incubate for a predetermined time, usually between 6 and 24 h. The plants are then further exposed for 24 h to ethylene gas (cotton, 5 to 10 μL L^−1), or sprayed with Ethephon™ (wheat, 250 to 750 μL L^−1). The plants are then ventilated and incubated for the required time under controlled conditions. The epinastic effect is expressed by measuring the degree values of the downward curvature between the blade and petiole (cotton, FIGS. 1-3) or between the blade and the stem (wheat, FIGS. 31 and 32). (4) Wheat Grain yield—This is a common test of the effects of exposure of monocot plants either to environmental stresses such as drought that induce senescence by increasing endogenous ethylene production. Excessive internal or external ethylene will accelerate senescence which will lead to reduced grain yield. In this project the intact plants were grown in the greenhouse up to the spike hading at milky stage I and II. The plants were then sprayed with the dissolved WS-CPD in phosphate buffer solution (10 mM, pH 7.6) including 0.1% Kinetic™ as surfactant. Young Cotton Seedlings […]

O=C([O-])CCC1=CC1.[Na+] [WS-CPD, 3-cyclopropyl-1-enyl-propanoic sodium salt]
ethylene-induced leaf epinasty ([1]; WS-CPD 10 and 30 μg mL^−1, ethylene 10 μL L^−1): completely reversed
ethylene-induced epinasty ([1]; WS-CPD spray 10 to 300 μg mL^−1, 24 h later ethylene 10 μL L^−1 for 24 h, three-week-old seedlings): completely antagonized
Ethephon-induced chlorophyll degradation in the glumes and chaffs ([2]; WS-CPD 62 μg mL^−1, Ethephon 250 μL L^−1): completely reversed
decrease of chlorophyll content in the flag leaf ([2]; WS-CPD 312 μg mL^−1, Ethephon 250 μL L^−1, milky stage I): almost completely antagonized
chlorophyll decrease induced by Ethephon ([2]; WS-CPD 415 μg mL^−1, Ethephon 750 μL L^−1, both types of leaves, milky stage I): only slightly antagonized
Ethephon-induced decrease of chlorophyll ([2]; WS-CPD 12 to 62 μg mL^−1, milky stage I, mainly flag leaf, also leaf II): significantly reduced
effect on chlorophyll in leaves treated with Ethephon ([2]; WS-CPD 15 to 135 μg L^−1 (so in the source), Ethephon 750 μL L^−1, milky stage II): not effective
decrease in the chlorophyll titer in the treated spike-chaffs ([2]; WS-CPD 15 to 135 μg L^−1 (so in the source), Ethephon 750 μL L^−1, milky stage II, insignificant): 3%
Ethephon-induced decrease in the content of chlorophyll ([2]; chaffs, Ethephon 750 μL L^−1): markedly antagonized
increase of chlorophyll content above control untreated plants ([2]; chaffs, WS-CPD 62 μg mL^−1, Ethephon 250 μL L^−1): 10%
Ethephon-induced decrease in the content of chlorophyll ([2]; glumes, Ethephon 750 μL L^−1): much less effective
increase of chlorophyll content above control untreated plants ([2]; glumes, WS-CPD 62 μg mL^−1, Ethephon 250 μL L^−1): 60%
